This is an account of results in ChEMBL document CHEMBL1157539, “Thousands of chemical starting points for antimalarial lead identification” (Nature, 2010).

The structures appear in SMILES notation.

The test system of the assay is Plasmodium falciparum. The experiment in a line: GSK_TCMDC: Inhibition of Plasmodium falciparum 3D7 in whole erythrocytes, using parasite LDH activity as an index of growth. Format: functional, organism-based. Particulars: Plasmodium falciparum, 3D7.
`c1ccc2[nH]c(-c3ccc(-c4ccc(CN5CCN(c6ccncc6)CC5)cc4)cc3)nc2c1` yielded an XC50 of 164 nM.
Regarding `Cc1cccc(C(=O)N2CCN(Cc3cccc(NC(=O)c4ccco4)c3)CC2)c1`, the XC50 amounted to 761 nM.
For `N#Cc1ccc(N(CCOc2ccc(Cl)c(F)c2)Cc2ccccc2C(F)(F)F)cc1C(F)(F)F` the value was 685 nM; for `CCCCCn1c(Sc2ccc(C#N)c([N+](=O)[O-])c2)nnc1-c1cc(OC)cc(OC)c1`, 956 nM.
Regarding `COc1cc2nccc(Nc3ccc(OCc4ccc(NC(C)=O)cc4)cc3)c2cc1OC`, the XC50 was 553 nM.
The value for `CC(C)CNCc1cccc(-c2cccc(CN(CCCN3CCN(C)CC3)C(=O)CCC3CCCC3)c2)c1` was 624 nM.
Consider `Fc1cccc(COc2ccc(Nc3ncnc4sc(C#Cc5ncc[nH]5)cc34)cc2Cl)c1`, for which the XC50 was determined as 134 nM.
The value for `CS(=O)(=O)CCNCc1nc(-c2ccc3c(Nc4ccc(Cl)cc4F)ccnc3c2)cs1` was 1080 nM; that for `CO/N=C(\C)c1ccc2c(c1)CCN(CCC1CCC(NC(=O)/C=C/c3ccc(F)cc3)CC1)CC2` (stereo not drawn) was 1070 nM; that for `O=C(c1ccccc1)N(Cc1ccccc1-c1ccc(CNCCc2ccccc2)cc1)C1CCN(Cc2ccccc2)CC1` was 995 nM.
`CS(=O)(=O)c1ccc(CCNCc2ccc(-c3ccc(CN(C(=O)c4ccco4)C4CCN(Cc5ccccc5)CC4)cc3)nc2)cc1` displayed an XC50 of 884 nM.
Take `O=C(NCC(CCN1CCC(c2c[nH]c3ccccc23)CC1)c1ccccc1)Nc1ccc(Cl)c(Cl)c1` (stereo not drawn): the XC50 is 833 nM.
`Cc1cc(N(C)C)nc(Nc2ccc(NC(=O)C3CCCCC3)cc2)n1` yielded an XC50 of 1110 nM.
For `CC(C)(C)C/C=C\c1ccc(C(=O)NCC2CC2)cc1` the value was 850 nM; for `Nc1c2c(nc3ccc(NC(=O)c4ccccc4)cc13)CCCC2`, 611 nM.
Regarding `CCCNC(=O)c1cncc(-c2ccc(CNC3Cc4ccccc4C3)cc2)c1`, the XC50 is 848 nM.
The molecule `O=C(NCCN1CCC(c2ccncc2)CC1)c1cccc(Nc2nccc(Nc3ccc(Oc4ccccc4)cc3)n2)c1` returned an XC50 of 168 nM.
Regarding `COc1cc(C2NCC3(CCOCC3)c3cc4c(cc32)OCCO4)cc(OC)c1OC` (stereo not drawn), the XC50 is 169 nM.
For `Cc1cc(N[C@@H](CC(C)C)C(=O)NCCc2ccccc2)nc(NCCc2ccc(F)cc2)n1` the value was 771 nM.
`Cc1ccccc1OCC(O)CN1CCC(C2CCN(CC(O)COc3ccccc3C)CC2)CC1` (stereo not drawn) registered an XC50 of 307 nM.
The value for `Cc1cc(O)c(CN(C)Cc2ccc(N(C)C)cc2)cc1C(C)C` was 550 nM; that for `CCC(C)NC(=O)CN1CN(c2ccccc2)C2(CCN(C(=O)c3ccc4ccccc4c3)CC2)C1=O` (stereo not drawn) was 627 nM.
For `CCOc1cc(C(=O)NC2CCN(Cc3ccccc3)CC2)ccc1-c1nc2cc(Cl)c(Cl)cc2[nH]1` the value was 469 nM.
Take `Cc1[nH]c(C)c(-c2ccc(OCCn3cnc(Cl)c3Cl)cc2)c(=O)c1Br`: the XC50 was 853 nM.
For `O=C(/C=C/c1ccc(Cl)c(Cl)c1)NCCCCCN1CCCC(C(=O)Nc2ccc(F)c(Cl)c2)C1` (stereo not drawn) the value was 903 nM.
For `Nc1c(Cl)cc(C(O)CNCCCCCOCCc2ccc3occc3c2)cc1Cl` (stereo not drawn) the value was 690 nM.
Molecule `FC(F)(F)COc1ccc2ccccc2c1CNCCCCCCNCc1c(OCC(F)(F)F)ccc2ccccc12` returned an XC50 of 352 nM.
The value for `CCn1c(C=Cc2cc(Br)ccc2O)nc2ccccc2c1=O` was 654 nM.
For `Cc1nc(C)c(-c2ccc(Br)cc2)c(O)c1Br` the value was 638 nM; for `COCC(C)n1c(SC(C)C(=O)Nc2cc([N+](=O)[O-])ccc2Cl)nc2ccccc2c1=O` (stereo not drawn), 229 nM.
As for `C=CCn1c(Sc2ccc(C#N)c([N+](=O)[O-])c2)nnc1-c1ccc(Cl)cc1`, the XC50 was 667 nM.
In turn, `CS(=O)(=O)c1ccc2nc(NC(=O)c3csnn3)sc2c1` registered an XC50 of 666 nM.
`O=C1C(=Cc2cc(Cc3ccccc3)ccc2O)SC(=S)N1Cc1ccccc1` gave an XC50 of 943 nM.
For `O=C(Nc1ccc(C(F)(F)F)cc1)c1ccc(S(=O)(=O)NC2CCN(Cc3ccccc3)C2)cc1` (stereo not drawn) the value was 618 nM; for `CCOc1cc(C)ccc1C1CCN(CCCCNC(=O)c2cccc(-c3ccc(C(F)(F)F)cc3)c2)CC1`, 937 nM; for `COc1cc2c(cc1C(F)(F)F)N(C(=O)Nc1cc(F)cc(-c3cccnn3)c1)CC2`, 275 nM.
With `O=C(/C=C/c1ccc(Cl)cc1)NCCCCCN1CCCC(C(=O)Nc2ccc(Cl)cc2)C1` (stereo not drawn), the XC50 amounted to 1050 nM.
The value for `COc1ccc(C(=O)CCC(=O)N(Cc2ccc(-c3ccc(CNCCc4ccc(S(C)(=O)=O)cc4)cn3)cc2)Cc2ccc3c(c2)OCO3)cc1F` was 943 nM; that for `CCN(CC)CCCOc1ccc(Nc2nccc(-c3c(-c4cccc(NC(=O)c5c(F)cccc5F)c4)nn4ccccc34)n2)cc1F` was 407 nM; that for `Oc1ccc(Nc2nc(NCc3ccco3)c3ccccc3n2)cc1` was 674 nM.
The value for `Clc1ccc(-c2cc(-c3csc(NCCN4CCCCC4)n3)on2)cc1` was 989 nM.
The molecule `CCc1c(CCNC/C=C/C=C/CNCCc2ccc(OC)c(OC)c2CC)ccc(OC)c1OC` registered an XC50 of 968 nM.
The value for `Cc1cc2c(cc1C(F)(F)F)N(C(=O)Nc1cnc(OCCN(C)C)c(C(F)(F)F)c1)CC2` was 966 nM.
In the case of `Cc1ccc(O)cc1Nc1ccnc2cc(-c3csc(CN4CCN(C)CC4)n3)ccc12`, the XC50 was found to be 597 nM.
The value for `CC(C)(C)CNc1noc(-c2sccc2Br)n1` was 1120 nM.
`CC1(C)N=C(N)N=C(NOCc2ccc(Cl)c(Cl)c2)N1` gave an XC50 of 228 nM.
For `CC(C)CCN1CCCN(Cc2cccc(C(=O)Nc3ccc(C(C)(C)C)cc3)c2)CC1` the value was 1100 nM.
For `C/C=C/COc1ccc2ccccc2c1CNCCCCCCCCNCc1c(OC/C=C/C)ccc2ccccc12` the value was 908 nM; for `CCCCNC(=O)c1cc(CNC2CCCCC2)ccc1-c1cccc(CNCc2ccc(-c3ccccc3)cc2)c1`, 531 nM.
For `Cn1cc(C(=O)Nc2cccc(-c3cccc(-c4nc5cc(F)ccc5[nH]4)c3)c2)n(C)c1=O` the value was 388 nM.
In the case of `CC(C)NCc1ccc(-c2cccc(NC(=O)c3ccc(F)cc3)c2)cc1`, the XC50 is 881 nM.
The value for `COc1ccccc1-c1nc2c(ccc3nc(N)nc(N)c32)[nH]1` was 176 nM.
In turn, `Nc1ncc(-c2cc3ccccc3o2)c(N)n1` had an XC50 of 1410 nM.
For `O=C(Nc1ccc(Br)c(Cl)c1)c1cc([N+](=O)[O-])cc2cn[nH]c12`, the XC50 stood at 1060 nM.
For `CC12CCC(CN(CC(O)Cn3c4ccccc4c4cc(I)ccc43)C1)C2(C)C` (stereo not drawn) the value was 1160 nM; for `CCOc1ccc(C(=O)Nc2nonc2-c2ccc(OC)c(OC)c2)cc1`, 868 nM.
The value for `Cc1cc(Nc2ccc(Cl)c(Cl)c2)n2nc(C)nc2n1` was 258 nM; that for `O=C(NCCCN(Cc1ccc(F)cc1)c1ccccn1)C(c1cc2ccccc2o1)N1CCN(C(c2ccccc2)c2ccccc2)CC1` (stereo not drawn) was 838 nM; that for `O=c1cc(NCCCNC2CCc3ccc(Cl)cc32)[nH]c2ccccc12` (stereo not drawn) was 862 nM.
For `CCOc1ccc2c(c1)OC(c1ccccc1)(C(F)(F)F)NC2=O` (stereo not drawn) the value was 167 nM; for `O=c1cc(NCCCNCc2cc(Br)cs2)[nH]c2ccccc12`, 1060 nM; for `NC1CCCN(Cc2cccc(-c3ccc(-c4nc5cc(F)ccc5[nH]4)cc3)c2)C1` (stereo not drawn), 566 nM.
On to `CCCCCCCCn1ccc(=N)cc1`, for which the XC50 came to 840 nM.
In turn, `CC[C@H]1CN2CC[C@H]1C[C@@H]2[C@@H](O)c1ccnc2ccccc12` yielded an XC50 of 279 nM.
For `CC(=O)Nc1ccc(OCCCCN(Cc2ccccc2OC(F)(F)F)c2ccc(C(F)(F)F)c(C#N)c2)c(Cl)c1` the value was 529 nM; for `COCCN(C(=O)Cc1cccs1)C(C(=O)NCc1ccc(OC)cc1)c1ccc(C(C)C)cc1` (stereo not drawn), 845 nM.
The value for `COc1ccc2nccc([C@@H](O)CN3CCC(NCc4cc5cc(Cl)ccc5[nH]4)CC3)c2c1` was 128 nM; that for `COc1ccc2ccccc2c1CCCCN1CCN(CC(c2ccc(F)cc2)N2CCC(N3CCCC3)CC2)CC1` (stereo not drawn) was 619 nM; that for `CCCN1CCN(CCCNC(=O)c2cc3c(Cl)nc4ccc(C)cc4c3s2)CC1` was 802 nM.
The value for `CC(C)(C)c1ccc(NC(=O)c2cccc(CN3CCCN(Cc4cccc(C#N)c4)CC3)c2)cc1` was 755 nM; that for `Cc1cccc(Nc2nc3nonc3nc2Nc2cccc(Cl)c2Cl)c1C` was 1030 nM.
For the molecule `NC1CCCN(Cc2ccc(-c3cccc(-c4nc5ccccc5[nH]4)c3)cc2)C1` (stereo not drawn), the XC50 came to 721 nM.
For `Cc1cc(C(=O)Nc2ccc(-c3ccccc3)cc2)no1` the value was 694 nM.
As to `NS(=O)(=O)c1cccc(Nc2nccc(-c3c(-c4cccc(NC(=O)c5c(F)cccc5F)c4)nn4ccccc34)n2)c1`, the XC50 was 73.6 nM.
The value for `O=c1cc(NCCCNCc2cccc(SC(F)(F)F)c2)[nH]c2ccccc12` was 725 nM.
Consider `CO/C(=C\C=C\c1cc2cc(Cl)c(Cl)cc2[nH]1)C(=O)N[C@H]1CN2CCC1CC2`, for which the XC50 is 1210 nM.
Molecule `CC(=O)N1N=C(c2ccc(Cl)cc2)Sc2c1nc(-c1ccccc1)n2C(C)=O` had an XC50 of 493 nM.
Consider `O=C1C(c2ccccc2)=C(Nc2cccc(OC(F)(F)C(F)F)c2)c2ccccc21`, for which the XC50 worked out at 180 nM.
The value for `CN(Cc1cc(C(F)(F)F)cc(C(F)(F)F)c1)C(=O)C(Cc1ccc(F)cc1)C1CCCNC1` (stereo not drawn) was 1540 nM; that for `COc1ccc2nccc(NC(=O)N3CCC(NCc4cc5ccccc5[nH]4)CC3)c2n1` was 556 nM.
Take `Nc1ccc(-c2csc(Nc3ccncc3)n2)cc1`: the XC50 was determined as 939 nM.
For `COc1ccc(-n2nc(C)cc2C(=O)NCc2ccc(-c3c(C)noc3C)cc2)cc1` the value was 980 nM; for `CCOc1cc(C(=O)NCCN(C(C)C)C(C)C)ccc1-c1nc2cc(Cl)ccc2[nH]1`, 778 nM; for `O=C(NC1CC1)C1CCN(Cc2cc3ccccc3n2Cc2ccc(Cl)cc2)CC1`, 489 nM.
As for `Cc1[nH]c(C)c(-c2ccc(/C=C/c3ccccn3)cc2)c(=O)c1Cl`, the XC50 stood at 516 nM.
Molecule `Cc1cccc(CNc2nccc3[nH]c4ccccc4c23)c1` had an XC50 of 1900 nM.
The value for `COc1cc(C(C)C)ccc1N1CCN(CCCCNC(=O)c2ccc(NC(=O)c3ccc(Cl)cc3)cc2)CC1` was 576 nM.
The value for `CCN(CC)C(=O)C1CCCN(c2cc(C)nc(Nc3ccc(Cl)cc3)n2)C1` (stereo not drawn) was 718 nM.
